Tested on: Cochliobolus miyabeanus
Experiment: Activity against brown spot of rice caused by Cochliobolus miyabeanus, protective application
Type: in vivo
Settings: individual active compound, inoculated next day, assessed after six days
Method: The active compounds, separately or jointly, were prepared as a stock solution with 0.25% by weight of active compound in acetone or DMSO. 1% by weight of the emulsifier Uniperol® EL (wetting agent having emulsifying and dispersing action based on ethoxylated alkylphenols) was added to this solution, and the solution was diluted with water to the desired concentration.
Use Example—Activity Against Brown Spot of Rice Caused by Cochliobolus Miyabeanus, Protective Application
Leaves of potted rice seedlings of the cultivar “Tai-Nong 67” were sprayed to runoff point with an aqueous suspension of the concentration of active compound stated below. The next day, the plants were inoculated with an aqueous spore suspension of Cochliobolus miyabeanus. The test plants were then placed in climatized chambers at 22-24° C. and 95-99% relative atmospheric humidity for six days. The extent of the development of the infection on the leaves was then determined visually.
Evaluation was carried out by determining the percentage of infected plants. These percentages were converted into efficacies.
The efficacy (E) is calculated as follows using Abbot's formula: E=(1−α/β)·100 • α corresponds to the fungicidal infection of the treated plants in % and • β corresponds to the fungicidal infection of the untreated (control) plants in %
An efficacy of 0 means that the infection level of the treated plants corresponds to that of the untreated control plants; an efficacy of 100 means that the treated plants are not infected.
The expected efficacies of mixtures of active compounds are determined using Colby's formula (R.S. Colby, Weeds, 15, 20-22, 1967) and compared with the observed efficacies.
Colby's Formula: E=x+y−x·y/100 • E expected efficacy, expressed in % of the untreated control, when using the mixture of the active compounds A and B at the concentrations a and b • x efficacy, expressed in % of the untreated control, when using the active compound A at the concentration a • y efficacy, expressed in % of the untreated control, when using the active compound B at the concentration b

CC1CCN(c2c(-c3c(F)cc(F)cc3F)c(Cl)nc3ncnn23)CC1 [I, 5-chloro-7-(4-methylpiperidin-1-yl)-6-(2,4,6-trifluorophenyl)-[1,2,4]triazolo[1,5-a]pyrimidine]
Efficacy in % of the untreated control (4 ppm in the spray liquor): 33%

CC1CCN(c2c(-c3c(F)cccc3Cl)c(Cl)nc3ncnn23)CC1 [A]
Efficacy in % of the untreated control (4 ppm in the spray liquor): 44%

CC1=C(C(=O)Nc2ccccc2)SCCO1 [II (carboxin), N-phenyl-2-methyl-5,6-dihydro-[1,4]oxathiine-3-carboxamide]
Efficacy in % of the untreated control (1 ppm in the spray liquor): 0% | Efficacy in % of the untreated control (4 ppm in the spray liquor): 0%

C[C@H](Nc1c(-c2c(F)cc(F)cc2F)c(Cl)nc2ncnn12)C(F)(F)F [B]
Efficacy in % of the untreated control (4 ppm in the spray liquor): 44%

Reference: patent publication US20070099939A1, “Fungicidal mixtures for controlling rice pathogens” (priority 2003, published 2007)
